Data: ChEMBL document CHEMBL1128307, “2-Aralkynyl and 2-heteroalkynyl derivatives of adenosine-5'-N-ethyluronamide as selective A2a adenosine receptor agonists” (J Med Chem, 1995)

Tests used:
[1] = Hydrophobicity index (k'') (RP-HPLC pH 7.5); type: ADME
Adenosine receptor A2a [2] = molecular target: T1, Adenosine receptor A2a (Rattus norvegicus, UniProt P30543)
Adenosine receptor A2a [3] = molecular target: T1, Adenosine receptor A2a; remark: listed apart in the source
Description: Functional activity against adenosine A2a receptor from rat aorta.

Adenosine receptor A1 [4] = molecular target: T2, Adenosine receptor A1 (Rattus norvegicus, UniProt P25099); assay: Functional activity against adenosine A1 receptor from rat atria.
T2 sequence (P25099 whole entry): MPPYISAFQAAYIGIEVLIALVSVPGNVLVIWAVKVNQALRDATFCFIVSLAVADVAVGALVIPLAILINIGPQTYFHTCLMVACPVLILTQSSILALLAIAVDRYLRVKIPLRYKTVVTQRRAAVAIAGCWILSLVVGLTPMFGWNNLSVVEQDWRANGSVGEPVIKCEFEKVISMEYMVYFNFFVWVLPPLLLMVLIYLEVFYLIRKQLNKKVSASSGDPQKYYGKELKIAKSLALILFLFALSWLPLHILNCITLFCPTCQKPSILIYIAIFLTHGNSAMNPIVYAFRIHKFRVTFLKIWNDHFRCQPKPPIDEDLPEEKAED

Adenosine receptor A1 [5] = molecular target: T2, Adenosine receptor A1
Description: Binding affinity against adenosine A1 receptor from rat brain using [3H]CHA as a radioligand.

Adenosine receptor A2a [6] = molecular target: T1, Adenosine receptor A2a; assay: Functional activity against A2a adenosine receptor from rat aorta.

T1 sequence (P30543 whole entry): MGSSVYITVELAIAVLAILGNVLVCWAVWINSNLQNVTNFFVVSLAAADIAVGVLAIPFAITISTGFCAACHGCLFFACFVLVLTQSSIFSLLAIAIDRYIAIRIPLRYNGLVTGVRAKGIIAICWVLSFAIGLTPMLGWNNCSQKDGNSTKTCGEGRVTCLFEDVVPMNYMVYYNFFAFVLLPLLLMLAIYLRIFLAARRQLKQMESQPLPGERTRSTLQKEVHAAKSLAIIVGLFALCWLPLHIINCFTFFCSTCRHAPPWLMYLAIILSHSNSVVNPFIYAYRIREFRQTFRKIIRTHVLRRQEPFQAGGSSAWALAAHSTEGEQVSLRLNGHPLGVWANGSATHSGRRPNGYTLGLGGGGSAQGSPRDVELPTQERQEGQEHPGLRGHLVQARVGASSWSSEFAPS

Row | SMILES | k' [1] | Ki (Adenosine receptor A2a [2]) [nM] | EC50 (Adenosine receptor A2a [3]) [nM] | EC50 (Adenosine receptor A1 [4]) [nM] | Ki (Adenosine receptor A1 [5]) [nM] | EC50 (Adenosine receptor A2a [6]) [nM]
1 | C#Cc1nc(N)c2ncn([C@@H]3O[C@H](C(=O)NCC)[C@@H](O)[C@H]3O)c2n1 | 0.25 | 57.8 | 440 |  |  | 
2 | CCNC(=O)[C@H]1O[C@@H](n2cnc3c(N)nc(C#CCCCc4ccccc4)nc32)[C@H](O)[C@@H]1O | 5.82 | 1.2 |  | 6480 | 209 | 
3 | CCNC(=O)[C@H]1O[C@@H](n2cnc3c(N)nc(C#Cc4ccccc4)nc32)[C@H](O)[C@@H]1O | 2.04 | 120 | 1500 | > 10000 | 698 | 
4 | OC[C@H]1O[C@@H](n2cnc3c(NC4CCCC4)nc(Cl)nc32)[C@H](O)[C@@H]1O | 2.76 |  |  |  |  | 
5 | CCCCC#Cc1nc(N)c2ncn([C@@H]3O[C@H](C(=O)NCC)[C@@H](O)[C@H]3O)c2n1 | 2.57 |  | 596 |  |  | 
6 | CCNC(=O)[C@H]1OC(n2cnc3c(N)nc(C#Cc4ccncc4)nc32)[C@H](O)[C@@H]1O (stereo not given in full) | 0.57 | 87 | > 10000 | > 10000 | 428 | 
7 | CCNC(=O)[C@H]1OC(n2cnc3c(N)nc(C#Cc4ccc(C=O)cc4)nc32)[C@H](O)[C@@H]1O (stereo not given in full) | 1.02 | 6.3 | 110 | > 10000 | 1000 | 
8 | CCNC(=O)[C@H]1OC(n2cnc3c(N)nc(C#Cc4ccc(O)cc4)nc32)[C@H](O)[C@@H]1O (stereo not given in full) | 0.66 | 20.6 | 660 | > 10000 | 497 | 
9 | CCNC(=O)[C@H]1OC(n2cnc3c(N)nc(C#Cc4ccc(C(C)=O)cc4)nc32)[C@H](O)[C@@H]1O (stereo not given in full) | 1.18 | 187 | 1670 | > 10000 | > 10000 | 
10 | CCNC(=O)[C@H]1OC(n2cnc3c(N)nc(C#CCN4CCN(C)CC4)nc32)[C@H](O)[C@@H]1O (stereo not given in full) | 0.42 | 19.1 | 408 | 877 | 35.9 | 
11 | CCNC(=O)[C@H]1OC(n2cnc3c(N)nc(C#Cc4cccnc4)nc32)[C@H](O)[C@@H]1O (stereo not given in full) | 0.51 | 234 | 491 | 415 | 139 | 
12 | CCNC(=O)[C@H]1OC(n2cnc3c(N)nc(C#CCN4CCCCC4)nc32)[C@H](O)[C@@H]1O (stereo not given in full) | 1.11 | 4.3 | 302 | 322 | 27.5 | 
13 | CCNC(=O)[C@H]1OC(n2cnc3c(N)nc(C#Cc4ccc(N)cc4)nc32)[C@H](O)[C@@H]1O (stereo not given in full) | 0.46 | 113 | 4070 | > 10000 | 599 | 
14 | CCNC(=O)[C@H]1OC(n2cnc3c(N)nc(C#CCN4CCSCC4)nc32)[C@H](O)[C@@H]1O (stereo not given in full) | 0.66 | 5.9 | 223 | 306 | 52.8 | 
15 | CCNC(=O)[C@H]1OC(n2cnc3c(N)nc(C#Cc4ccc([N+](=O)[O-])cc4)nc32)[C@H](O)[C@@H]1O (stereo not given in full) | 1.82 | 21.5 | 1210 | > 10000 | 900 | 
16 | CCNC(=O)[C@H]1OC(n2cnc3c(N)nc(C#CCN4CCOCC4)nc32)[C@H](O)[C@@H]1O (stereo not given in full) | 0.28 | 27.4 | 531 | 358 | 90.5 | 
17 | CCNC(=O)[C@H]1OC(n2cnc3c(N)nc(C#Cc4ccc(C(F)(F)F)cc4)nc32)[C@H](O)[C@@H]1O (stereo not given in full) | 5.79 | 315 | 2990 |  | 2430 | 
18 | CCNC(=O)[C@H]1OC(n2cnc3c(N)nc(C#Cc4cccs4)nc32)[C@H](O)[C@@H]1O (stereo not given in full) | 1.63 | 19.5 |  | > 10000 | 597 | 227

Row | SMILES | k' [1] | Ki (Adenosine receptor A2a [2]) [nM] | EC50 (Adenosine receptor A2a [3]) [nM] | EC50 (Adenosine receptor A1 [4]) [nM] | Ki (Adenosine receptor A1 [5]) [nM] | EC50 (Adenosine receptor A2a [6]) [nM]
19 | CCNC(=O)[C@H]1OC(n2cnc3c(N)nc(C#Cc4ccc(OC)cc4)nc32)[C@H](O)[C@@H]1O (stereo not given in full) | 2.15 | 52.4 | 3480 | > 10000 | 414 | 
20 | CCNC(=O)[C@H]1OC(n2cnc3c(N)nc(C#CCc4ccccc4)nc32)[C@H](O)[C@@H]1O (stereo not given in full) | 2.4 | 1.6 | 406 | 164 | 27.4 | 
21 | CCNC(=O)[C@H]1OC(n2cnc3c(N)nc(C#Cc4cccc(C=O)c4)nc32)[C@H](O)[C@@H]1O (stereo not given in full) | 1.06 | 176 | 3570 | > 10000 | 1440 | 
22 | CCNC(=O)[C@H]1OC(n2cnc3c(N)nc(C#Cc4ccco4)nc32)[C@H](O)[C@@H]1O (stereo not given in full) | 1.06 | 130 | > 10000 | > 10000 | 310 | 
23 | CCNC(=O)[C@H]1OC(n2cnc3c(N)nc(C#Cc4cccc5ccccc45)nc32)[C@H](O)[C@@H]1O (stereo not given in full) | 5.49 | 488 | 468 | > 10000 | 4460 | 
24 | CCNC(=O)[C@H]1OC(n2cnc3c(N)nc(C#Cc4ccc(CCC(=O)O)cc4)nc32)[C@H](O)[C@@H]1O (stereo not given in full) |  | > 1000 | 0.008 | > 10000 | > 1000 | 
25 | CCNC(=O)[C@H]1OC(n2cnc3c(N)nc(C#Cc4ccc(CC#N)cc4)nc32)[C@H](O)[C@@H]1O (stereo not given in full) | 0.76 | 54.8 | 6520 | > 10000 | 1600 | 
26 | CCNC(=O)[C@H]1OC(n2cnc3c(N)nc(C#Cc4nccs4)nc32)[C@H](O)[C@@H]1O (stereo not given in full) | 0.55 | 41.3 | 28.7 | 7160 | 85.4 | 
27 | CCNC(=O)[C@H]1OC(n2cnc3c(N)nc(C#Cc4ccccc4C=O)nc32)[C@H](O)[C@@H]1O (stereo not given in full) | 1.14 | 1160 | 1300 | > 10000 | 6860 | 
28 | CCNC(=O)[C@H]1OC(n2cnc3c(N)nc(C#Cc4ccc(CCC(=O)OC(C)(C)C)cc4)nc32)[C@H](O)[C@@H]1O (stereo not given in full) | 2.28 | 743 | 1350 | > 10000 | > 10000 | 
29 | CCNC(=O)[C@H]1OC(n2cnc3c(N)nc(C#Cc4ccc(C)cc4)nc32)[C@H](O)[C@@H]1O (stereo not given in full) | 3.59 | 36.3 | 3290 | 8530 | 500 | 
30 | CCNC(=O)[C@H]1OC(n2cnc3c(N)nc(C#CCCc4ccccc4)nc32)[C@H](O)[C@@H]1O (stereo not given in full) | 3.16 | 7 | 210 | > 10000 | 448 | 
31 | CCNC(=O)[C@H]1OC(n2cnc3c(N)nc(C#Cc4ccc(F)cc4)nc32)[C@H](O)[C@@H]1O (stereo not given in full) | 2.33 | 81.4 | > 10000 | > 10000 | 3310 | 
32 | CCNC(=O)[C@H]1OC(n2cnc3c(N)nc(C#Cc4ccc(C(N)=O)cc4)nc32)[C@H](O)[C@@H]1O (stereo not given in full) | 0.32 | 1500 | 6420 | > 10000 | 7500 | 
33 | CCNC(=O)[C@H]1OC(n2cnc3c(N)nc(C#Cc4ccccn4)nc32)[C@H](O)[C@@H]1O (stereo not given in full) | 0.49 | 89.8 | 243 | 840 | 114 | 
34 | CCNC(=O)[C@H]1OC(n2cnc3c(N)nc(C#CCn4ccnc4)nc32)[C@H](O)[C@@H]1O (stereo not given in full) | 0.22 | 16.5 | 753 | 3140 | 178 | 
35 | CCNC(=O)[C@H]1O[C@@H](n2cnc3c(N)nc(NCCc4ccc(CCC(=O)O)cc4)nc32)[C@H](O)[C@@H]1O [CGS-21680] | 0.24 |  |  |  |  | 
36 | CCNC(=O)[C@H]1O[C@@H](n2cnc3c(N)ncnc32)[C@H](O)[C@@H]1O [NECA] | 0.19 |  |  |  |  | 
